Experimental data from paper PMC6556873, “Rapid Covalent-Probe Discovery by Electrophile-Fragment Screening” (Journal of the American Chemical Society, 2019).
Like-named read-outs stand apart in the source and are kept apart here.

Tests used:
in vitro [1] = test: in vitro; set-up: species or system HB2, CCD841; settings: human, hek293 cells
in vitro [2] = test: in vitro; set-up: species or system HB2, HEK293; settings: human, ccd841 cells
PCAF = target: T1, PCAF (Homo sapiens, UniProt Q92831); set-up: Intact protein LC/MS covalent labelling, fragments in pools of five, 200 uM each, 4 °C; settings: 24 h, 4 °C, pool of five; 200 µM; covalent
T1 construct: gene KAT2B
T1 sequence (Q92831 whole entry, the tested form may be a part): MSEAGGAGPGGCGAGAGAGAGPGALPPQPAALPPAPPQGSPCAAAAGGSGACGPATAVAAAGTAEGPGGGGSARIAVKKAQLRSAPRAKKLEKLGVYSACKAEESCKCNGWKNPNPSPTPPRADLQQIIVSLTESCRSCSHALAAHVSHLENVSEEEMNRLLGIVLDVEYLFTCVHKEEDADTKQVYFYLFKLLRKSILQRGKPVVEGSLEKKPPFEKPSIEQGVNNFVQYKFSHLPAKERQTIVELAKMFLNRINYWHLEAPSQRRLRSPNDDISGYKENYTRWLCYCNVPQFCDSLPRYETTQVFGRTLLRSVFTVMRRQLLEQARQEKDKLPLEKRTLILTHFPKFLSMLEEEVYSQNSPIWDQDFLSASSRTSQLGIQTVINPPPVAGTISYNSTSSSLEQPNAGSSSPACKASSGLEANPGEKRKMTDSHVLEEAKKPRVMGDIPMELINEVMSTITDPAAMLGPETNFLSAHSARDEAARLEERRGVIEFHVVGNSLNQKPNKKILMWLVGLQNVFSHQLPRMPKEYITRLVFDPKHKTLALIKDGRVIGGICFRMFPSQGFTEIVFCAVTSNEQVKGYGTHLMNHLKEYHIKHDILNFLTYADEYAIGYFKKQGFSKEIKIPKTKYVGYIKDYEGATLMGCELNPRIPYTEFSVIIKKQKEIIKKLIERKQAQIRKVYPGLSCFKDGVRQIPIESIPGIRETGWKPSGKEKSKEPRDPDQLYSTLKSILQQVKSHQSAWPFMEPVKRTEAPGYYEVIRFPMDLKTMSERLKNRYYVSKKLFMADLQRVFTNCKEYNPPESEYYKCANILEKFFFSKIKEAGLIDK

OTUB2 (OTUB2A) = target: T2, OTUB2 (OTUB2A) (Homo sapiens, UniProt Q96DC9); set-up: Intact protein LC/MS covalent labelling, fragments in pools of five, 200 uM each, 4 °C; settings: 24 h, 4 °C, pool of five; 200 µM; covalent
T2 construct: full length residues 1-234, E. coli BL21(DE3)-R3, His tag removed by TEV, construct 27312 Da
T2 sequence (Q96DC9 1-234): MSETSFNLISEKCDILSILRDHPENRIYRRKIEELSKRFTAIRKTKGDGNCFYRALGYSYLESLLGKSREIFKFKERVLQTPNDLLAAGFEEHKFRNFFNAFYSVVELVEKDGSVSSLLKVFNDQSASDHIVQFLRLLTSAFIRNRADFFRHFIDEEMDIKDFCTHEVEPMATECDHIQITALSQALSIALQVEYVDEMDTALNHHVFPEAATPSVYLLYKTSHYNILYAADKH

NNMT (hNNMT) = target: T3, NNMT (hNNMT) (Homo sapiens, UniProt P40261); set-up: Intact protein LC/MS covalent labelling, fragments in pools of five, 200 uM each, 4 °C; settings: 24 h, 4 °C, pool of five; 200 µM; covalent
T3 construct: wild type, N-terminal His6 tag kept (no cleavage described), E. coli, construct 31248 Da
T3 sequence (P40261 1-264): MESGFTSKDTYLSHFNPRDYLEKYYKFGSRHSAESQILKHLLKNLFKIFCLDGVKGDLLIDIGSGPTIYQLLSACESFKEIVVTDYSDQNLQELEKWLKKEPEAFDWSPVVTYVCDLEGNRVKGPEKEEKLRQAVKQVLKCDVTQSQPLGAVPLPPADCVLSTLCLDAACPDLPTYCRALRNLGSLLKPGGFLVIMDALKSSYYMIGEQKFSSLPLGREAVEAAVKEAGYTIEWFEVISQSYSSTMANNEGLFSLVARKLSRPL

NUDT7 = target: T4, NUDT7 (Homo sapiens, UniProt P0C024); set-up: Intact protein LC/MS covalent labelling, fragments in pools of five, 200 uM each, 4 °C; settings: 24 h, 4 °C, pool of five; 200 µM; covalent
T4 construct: residues 14-235, E. coli, pNIC28-Bsa4, N-terminal His6 tag removed by TEV, construct 26672 Da
T4 sequence (P0C024 14-235): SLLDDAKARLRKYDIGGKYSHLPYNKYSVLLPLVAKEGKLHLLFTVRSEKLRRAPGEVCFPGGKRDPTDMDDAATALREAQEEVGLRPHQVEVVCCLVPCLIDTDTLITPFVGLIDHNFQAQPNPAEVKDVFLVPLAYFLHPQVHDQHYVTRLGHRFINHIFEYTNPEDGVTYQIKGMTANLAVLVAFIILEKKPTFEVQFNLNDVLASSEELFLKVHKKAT

BSA = target: T5, BSA (Bos taurus, UniProt P02769); set-up: Intact protein LC/MS covalent labelling, fragments in pools of five, 200 uM each, 4 °C; settings: 24 h, 4 °C, pool of five; 200 µM; covalent
T5 construct: gene ALB
T5 sequence (P02769 whole entry, the tested form may be a part): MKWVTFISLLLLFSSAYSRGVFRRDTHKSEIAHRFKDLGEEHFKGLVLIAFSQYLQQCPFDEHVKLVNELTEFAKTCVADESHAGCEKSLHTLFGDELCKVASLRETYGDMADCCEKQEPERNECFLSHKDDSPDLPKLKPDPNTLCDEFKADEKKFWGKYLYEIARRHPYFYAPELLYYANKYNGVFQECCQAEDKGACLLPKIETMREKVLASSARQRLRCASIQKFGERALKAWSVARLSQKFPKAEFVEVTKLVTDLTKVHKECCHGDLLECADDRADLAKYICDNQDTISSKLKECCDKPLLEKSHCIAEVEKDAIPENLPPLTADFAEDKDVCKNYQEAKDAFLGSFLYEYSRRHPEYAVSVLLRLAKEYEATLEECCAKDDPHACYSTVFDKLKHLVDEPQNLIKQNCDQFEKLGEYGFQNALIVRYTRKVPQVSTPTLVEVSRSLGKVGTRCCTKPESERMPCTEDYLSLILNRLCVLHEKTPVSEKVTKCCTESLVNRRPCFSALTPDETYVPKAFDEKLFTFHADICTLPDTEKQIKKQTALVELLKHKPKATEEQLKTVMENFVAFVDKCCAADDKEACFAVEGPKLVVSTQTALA

in vitro [3] = test: in vitro; set-up: species or system CCD841, HEK293; settings: human, hb2 cells, read-out: HB-2 Cells Viability (%)

C=CC(=O)N(C)C1CCCc2nc(CC)sc21 (centres unmarked) [PCM-0102483]
viability at 48 h, 10 µM (in vitro [1]): 97.3% | viability at 48 h, 10 µM (in vitro [2]): 103% | PCAF (PCAF): 0 | OTUB2 (OTUB2 (OTUB2A)): 0 | NNMT (NNMT (hNNMT)): 0 | NUDT7 (NUDT7): 0 | BSA (BSA): 0 | viability at 48 h, 10 µM (in vitro [3]): 98.1%

C=CC(=O)N(C)C1CCCCNC1=O (centres unmarked) [PCM-0102484]
viability at 48 h, 10 µM (in vitro [1]): 122% | viability at 48 h, 10 µM (in vitro [2]): 101% | PCAF (PCAF): 0 | OTUB2 (OTUB2 (OTUB2A)): 0.11 | NNMT (NNMT (hNNMT)): 0 | NUDT7 (NUDT7): 0 | BSA (BSA): 0 | viability at 48 h, 10 µM (in vitro [3]): 95.7%

C=CC(=O)NC(C)C(=O)N1CCc2ccccc21 (centres unmarked) [PCM-0102486]
viability at 48 h, 10 µM (in vitro [1]): 99% | viability at 48 h, 10 µM (in vitro [2]): 89.6% | PCAF (PCAF): 0 | OTUB2 (OTUB2 (OTUB2A)): 0 | NNMT (NNMT (hNNMT)): 0 | NUDT7 (NUDT7): 0 | BSA (BSA): 0 | viability at 48 h, 10 µM (in vitro [3]): 99.8%

C=CC(=O)N1CCC(CN2C(=O)CNC2=O)C1 (centres unmarked) [PCM-0102488]
viability at 48 h, 10 µM (in vitro [1]): 100% | viability at 48 h, 10 µM (in vitro [2]): 114% | PCAF (PCAF): 0 | OTUB2 (OTUB2 (OTUB2A)): 0 | NNMT (NNMT (hNNMT)): 0 | NUDT7 (NUDT7): 0 | BSA (BSA): 0 | viability at 48 h, 10 µM (in vitro [3]): 96.6%

C=CC(=O)N1CCNC(=O)C1c1c(F)cccc1Cl (centres unmarked) [PCM-0102490]
viability at 48 h, 10 µM (in vitro [1]): 104% | viability at 48 h, 10 µM (in vitro [2]): 95.5% | PCAF (PCAF): 0 | OTUB2 (OTUB2 (OTUB2A)): 0 | NNMT (NNMT (hNNMT)): 0 | NUDT7 (NUDT7): 0 | BSA (BSA): 0 | viability at 48 h, 10 µM (in vitro [3]): 98.5%

N#CSc1ccc(NC(=O)CCl)c(Cl)c1 [PCM-0102506]
viability at 48 h, 10 µM (in vitro [1]): 51.9% | viability at 48 h, 10 µM (in vitro [2]): 33.4% | PCAF (PCAF): 0 | OTUB2 (OTUB2 (OTUB2A)): 0 | NNMT (NNMT (hNNMT)): 0.38 | NUDT7 (NUDT7): 0 | BSA (BSA): 0 | viability at 48 h, 10 µM (in vitro [3]): 20.6%

C=CC(=O)N1CCCCC1C(=O)O (centres unmarked) [PCM-0102507]
viability at 48 h, 10 µM (in vitro [1]): 95.6% | viability at 48 h, 10 µM (in vitro [2]): 109% | PCAF (PCAF): 0 | OTUB2 (OTUB2 (OTUB2A)): 0 | NNMT (NNMT (hNNMT)): 0 | NUDT7 (NUDT7): 0 | BSA (BSA): 0 | viability at 48 h, 10 µM (in vitro [3]): 101%

Cc1ccc([N+](=O)[O-])c(NC(=O)CCl)c1C [PCM-0102511]
viability at 48 h, 10 µM (in vitro [1]): 56.3% | viability at 48 h, 10 µM (in vitro [2]): 75.4% | PCAF (PCAF): 0 | OTUB2 (OTUB2 (OTUB2A)): 0.07 | NNMT (NNMT (hNNMT)): 0 | NUDT7 (NUDT7): 0.15 | BSA (BSA): 0 | viability at 48 h, 10 µM (in vitro [3]): 91.5%

O=C(CCl)N1CCCCC1 [PCM-0102514]
viability at 48 h, 10 µM (in vitro [1]): 90.8% | viability at 48 h, 10 µM (in vitro [2]): 88.1% | PCAF (PCAF): 0 | OTUB2 (OTUB2 (OTUB2A)): 0 | NNMT (NNMT (hNNMT)): 0 | NUDT7 (NUDT7): 0 | BSA (BSA): 0 | viability at 48 h, 10 µM (in vitro [3]): 92.8%

C=CC(=O)N1CCCCC1c1ncon1 (centres unmarked) [PCM-0102517]
viability at 48 h, 10 µM (in vitro [1]): 91.3% | viability at 48 h, 10 µM (in vitro [2]): 120% | PCAF (PCAF): 0 | OTUB2 (OTUB2 (OTUB2A)): 0 | NNMT (NNMT (hNNMT)): 0 | NUDT7 (NUDT7): 0 | BSA (BSA): 0 | viability at 48 h, 10 µM (in vitro [3]): 101%

C=CC(=O)NC1CCC(c2nc(C)no2)CC1 (centres unmarked) [PCM-0102521]
viability at 48 h, 10 µM (in vitro [1]): 83% | viability at 48 h, 10 µM (in vitro [2]): 116% | PCAF (PCAF): 0 | OTUB2 (OTUB2 (OTUB2A)): 0.35 | NNMT (NNMT (hNNMT)): 0 | NUDT7 (NUDT7): 0 | BSA (BSA): 0 | viability at 48 h, 10 µM (in vitro [3]): 101%

C=CC(=O)N1CCCC(c2ncc(C(F)(F)F)[nH]2)C1 (centres unmarked) [PCM-0102527]
viability at 48 h, 10 µM (in vitro [1]): 109% | viability at 48 h, 10 µM (in vitro [2]): 129% | PCAF (PCAF): 0 | OTUB2 (OTUB2 (OTUB2A)): 0 | NNMT (NNMT (hNNMT)): 0 | NUDT7 (NUDT7): 0 | BSA (BSA): 0.09 | viability at 48 h, 10 µM (in vitro [3]): 98.6%

C=CC(=O)N1CCN(C(=O)Cc2c(C)noc2C)CC1 [PCM-0102531]
viability at 48 h, 10 µM (in vitro [1]): 91.3% | viability at 48 h, 10 µM (in vitro [2]): 106% | PCAF (PCAF): 0 | OTUB2 (OTUB2 (OTUB2A)): 0 | NNMT (NNMT (hNNMT)): 0 | NUDT7 (NUDT7): 0 | BSA (BSA): 0 | viability at 48 h, 10 µM (in vitro [3]): 106%
